Series [1] has as its system broad-leaved weeds and weed grasses. The series is described as follows: Post-emergence test, activity against weeds. In kind it is in vivo. As to conditions: test plants 5-15 cm sprayed, rated after three weeks. The source says: (§1) Solvent: 5 parts by weight of acetone
The test system of the next series is crop plants. As to conditions: post-emergence, rated after three weeks.
Series [2] relates to weeds. The series is described as follows: Pre-emergence test, activity against weeds. It counts as in vivo. As to conditions: soil sprayed 24 hours after sowing, rated after three weeks.
Description: as §1
Seeds of the test plants are sown in normal soil.

The next series concerns rice. In words: Trial in sown rice (greenhouse), tolerance by rice. In kind it is in vivo. As to conditions: foliar treatment at 1.5-2-leaf stage of rice, flooded, rated 4 weeks after application.
Description: as §1
Plant vessels (dimensions: 20 cm×20 cm×9 cm; surface: 1/200 ar) are filled with soil from a rice field. Seeds of rice and weeds are sown into the soil, which is kept moist.
The test batches are then kept flooded (water depth 3 cm).

Series [3] is described as follows: log P by reversed-phase HPLC (C 18), acidic range. It counts as physicochemical. As to conditions: for logP: marked a): acidic range. On the procedure: Temperature: 43° C. (a) Mobile phases for the determination in the acidic range: 0.1% aqueous phosphoric acid, acetonitrile; linear gradient from 10% acetonitrile to 90% acetonitrile—the corresponding measurement results are marked ^a) in Table 1.

Series [4] concerns weeds. The series is described as follows: Trial in sown rice (greenhouse), activity against weeds. As to conditions: foliar treatment at 1.5-2-leaf stage of rice, flooded, rated 4 weeks after application. In kind it is in vivo.
Description: as §1
Plant vessels (dimensions: 20 cm×20 cm×9 cm; surface: 1/200 ar) are filled with soil from a rice field. Seeds of rice and weeds are sown into the soil, which is kept moist. At the 1.5-2-leaf stage of rice, the dilute preparation of active compound is applied as a spray (foliar treatment).
One day after the treatment, the test vessels are flooded to a water depth of 3 cm. The test batches are then kept flooded (water depth 3 cm).

Where [5] appears, read: 0.1% aqueous phosphoric acid/acetonitrile gradient, HPLC C 18, 43° C.
[6] abbreviates: 0.1% aqueous phosphoric acid, acetonitrile, HPLC reversed-phase column (C 18), 43° C.

We go through 44 compounds from patent US7670991B2, “Substituted benzoylcyclohexenones and their use as herbicidal agents” (Bayer CropScience AG, priority 2001, dated 2010).

Description for crop plants: Emulsifier: 1 part by weight of alkylaryl polyglycol ether
After three weeks, the degree of damage to the plants is rated in % damage in comparison to the development of the untreated control.

The chromatographic logP is lipophilicity estimated from chromatographic retention. `CN1CCN(C(=O)Nc2c(Cl)ccc(C(=O)C3C(=O)CCCC3=O)c2Cl)C1=O` [Example 1-1, N-[2,6-dichloro-3-[(2,6-dioxo-cyclohexyl)-carbonyl]-phenyl]-3-methyl-2-oxo-1-imidazolidinecarboxamide]: in series [1], the “activity against broad-leaved weeds and weed grasses” value was “strong activity”. For the same compound, the “tolerated by crop plants” value in the series on crop plants is “tolerated well”. The activity against weeds entry with weeds [2] and in the series with weeds [4] was “strong activity” throughout. In the series with rice, the tolerated by rice result is recorded as “tolerated well”. For the same compound, the chromatographic logP in series [3] (reversed-phase HPLC column (C 18), pH=2.3) came to 2.07. Consider `CCN1CCN(C(=O)Nc2c(Cl)ccc(C(=O)C3=C(O)CCCC3=O)c2Cl)C1=O` [Example 1-2], for which the activity against weeds result in the series on weeds [2] was “strong activity”. The logP result in series [3] (setting [5]) is “(I-2) logP = 2.33^a)”.

`CON(C)C(=O)Nc1c(Cl)ccc(C(=O)C2=C(O)CCCC2=O)c1Cl` [Example 1-3]: in the series with weeds [2], the activity against weeds result is recorded as “strong activity”. In series [3] (setting [5]), the logP result is recorded as “(I-2) logP = 1.97^a)”. Taken in the same sequence, the figures for `CN1CCCN(C(=O)Nc2c(Cl)ccc(C(=O)C3=C(O)CCCC3=O)c2Cl)C1=O` [Example 1-4] were “strong activity” and “(I-2) logP = 2.33^a)”. Taken in the same sequence, the figures for `O=C1CCCC(O)=C1C(=O)c1ccc(Cl)c(NC(=O)N2CCOCC2)c1Cl` [Example 1-5] were “strong activity” and “(I-2) logP = 1.60^a)”. For `CN(C)NC(=O)Nc1c(Cl)ccc(C(=O)C2=C(O)CCCC2=O)c1Cl` [Example 1-6] the same measures were “strong activity” and “(I-2) logP = 1.81^a)”. In the case of `COCCN(C)C(=O)Nc1c(Cl)ccc(C(=O)C2=C(O)CCCC2=O)c1Cl` [Example 1-132], in series [3] (setting [5]), the logP result is given as “(I-2) logP = 2.04^a)”. On to `COCCN(CCOC)C(=O)Nc1c(Cl)ccc(C(=O)C2=C(O)CCCC2=O)c1Cl` [Example 1-134], for which, in series [3] (setting [5]), the logP result is “(I-2) logP = 2.40^a)”.

In the case of `CCONC(=O)Nc1c(Cl)ccc(C(=O)C2=C(O)CCCC2=O)c1Cl` [Example 1-136], the logP result in series [3] (setting [5]) was “(I-2) logP = 1.88^a)”. Same read-out and setting: the same measure for `O=C(NCc1ccccc1)Nc1c(Cl)ccc(C(=O)C2=C(O)CCCC2=O)c1Cl` [Example 1-142]: “(I-2) logP = 2.37^a)”; for `O=C1CCCC(O)=C1C(=O)c1ccc(Cl)c(NC(=O)C2=NOCC2)c1Cl` [Example 1-145]: “(I-2) logP = 2.02^a)”. The same measure, in the same setting: in the case of `O=C1CCCC(O)=C1C(=O)c1ccc(Cl)c(NC(=O)c2ccco2)c1Cl` [Example 1-147] it was “(I-2) logP = 2.08^a)”; in that of `O=C1CCCC(O)=C1C(=O)c1ccc(Cl)c(NC(=O)c2ccc(Cl)cc2)c1Cl` [Example 1-150], “(I-2) logP = 2.96^a)”; in that of `O=C1CCCC(O)=C1C(=O)c1ccc(Cl)c(NC(=O)N2CCCO2)c1Cl` [Example 1-151], “(I-2) logP = 1.93^a)”. Turning to `CON(C)C(=S)Nc1c(Cl)ccc(C(=O)C2=C(O)CCCC2=O)c1Cl` [Example 1-159], the logP entry in series [3] (setting [5]) is “(I-2) logP = 2.28^a)”. On the same count and under the same terms, in the case of `O=C(Nc1c(Cl)ccc(C(=O)C2=C(O)CCCC2=O)c1Cl)NN1CCCCC1` [Example 1-160] it was “(I-2) logP = 2.52^a)”; in that of `CON(C)C(=O)Nc1c(Cl)ccc(C(=O)C2=C(Sc3ccccc3)CCCC2=O)c1Cl` [Example 1-161], “(I-2) Y = SC6H5 logP = 2.98^a)”; in that of `Cn1ccsc1=NC(=O)Nc1c(Cl)ccc(C(=O)C2=C(O)CCCC2=O)c1Cl` [Example 1-162], “(I-2) logP = 1.96^a)”.

Consider `CCn1ccsc1=NC(=O)Nc1c(Cl)ccc(C(=O)C2=C(O)CCCC2=O)c1Cl` [Example 1-163], for which the logP result in series [3] (setting [5]) is “(I-2) logP = 2.22^a)”.

In the case of `O=C1CCCC(O)=C1C(=O)c1ccc(Cl)c(NC(=O)N2CCCCO2)c1Cl` [Example 1-164], the logP entry in series [3] (setting [5]) is listed as “(I-2) logP = 2.17^a)”. On the same count and under the same terms, the same measure for `CCCN(CC)C(=O)Nc1c(Cl)ccc(C(=O)C2=C(O)CCCC2=O)c1Cl` [Example 1-165]: “(I-2) logP = 2.56^a)”; for `CC(C)N(C)C(=O)Nc1c(Cl)ccc(C(=O)C2=C(O)CCCC2=O)c1Cl` [Example 1-166]: “(I-2) logP = 2.17^a)”. As to `CCON(C)C(=O)Nc1c(Cl)ccc(C(=O)C2=C(O)CCCC2=O)c1Cl` [Example 1-167], in series [3] (setting [5]), the logP entry is recorded as “(I-2) logP = 2.30^a)”. The same measure, in the same setting: the same measure for `CC(C)(C)NC(=O)Nc1c(Cl)ccc(C(=O)C2=C(O)CCCC2=O)c1Cl` [Example 1-168]: “(I-2) logP = 2.41^a)”. The same measure, in the same setting: in the case of `CCN(C(=O)Nc1c(Cl)ccc(C(=O)C2=C(O)CCCC2=O)c1Cl)C(C)C` [Example 1-169] it was “(I-2) logP = 2.49^a)”.

Take `CCN(C)C(=O)Nc1c(Cl)ccc(C(=O)C2=C(O)CCCC2=O)c1Cl` [Example 1-170]: the logP entry in series [3] (setting [5]) is recorded as “(I-2) logP = 1.91^a)”.

`O=C(NCC1CC1)Nc1c(Cl)ccc(C(=O)C2=C(O)CCCC2=O)c1Cl` [Example 1-171]: the logP result in series [3] (setting [5]) is listed as “(I-2) logP = 2.05^a)”. Still for that read-out and setting: in the case of `COCCCNC(=O)Nc1c(Cl)ccc(C(=O)C2=C(O)CCCC2=O)c1Cl` [Example 1-172] it was “(I-2) logP = 1.72^a)”; in that of `CCCN(C)C(=O)Nc1c(Cl)ccc(C(=O)C2=C(O)CCCC2=O)c1Cl` [Example 1-173], “(I-2) logP = 2.22^a)”.

As to `CON(C)C(=O)Nc1c(Cl)ccc(C(=O)C2=C(O)C(C)(C)CCC2=O)c1Cl` [Example 2-1], in series [3] (setting [6]), the logP result is on record as “(I-2) logP = 2.61^a)”. On the same count and under the same terms, in the case of `CC1(C)CCC(=O)C(C(=O)c2ccc(Cl)c(NC(=O)N3CCCO3)c2Cl)=C1O` [Example 2-61] it was “(I-2) logP = 2.57^a)”; in that of `CC1(C)CCC(=O)C(C(=O)c2ccc(Cl)c(NC(=O)N3CCCCO3)c2Cl)=C1O` [Example 2-69], “(I-2) logP = 2.83^a)”; in that of `CON(C)C(=O)Nc1c(Cl)ccc(C(=O)C2=C(O)CC(C)(C)CC2=O)c1Cl` [Example 4-1], “(I-2) logP = 2.54^a)”. On the same count and under the same terms, the same measure for `CC1(C)CC(=O)C(C(=O)c2ccc(Cl)c(NC(=O)N3CCCCO3)c2Cl)=C(O)C1` [Example 4-69]: “(I-2) logP = 2.76^a)”.

In the case of `CON(C)C(=O)Nc1c(Cl)ccc(C(=O)C2=C(O)C3CCC(C3)C2=O)c1Cl` (stereo not drawn) [Example 5-1], in series [3] (0.1% aqueous phosphoric acid/acetonitrile gradient, reversed-phase HPLC C 18, 43° C.), the logP entry is “(I-2) logP = 2.23^a)”. Take `COC(=O)c1ccc(Cl)c(NC(=O)N2CCOCC2)c1Cl` [IIIa-6]: in series [3] (setting [5]), the logP entry is recorded as “logP = 1.34^a)”. On the same count and under the same terms, the same measure for `COC(=O)c1ccc(Cl)c(NC(=O)NN(C)C)c1Cl` [IIIa-7]: “logP = 1.64^a)”. Still for that read-out and setting: in the case of `COC(=O)c1ccc(Cl)c(NC(=O)N2CCN(C)CC2)c1Cl` [IIIa-8] it was “logP = 0.50^a)”; in that of `CCN(CC)C(=O)Nc1c(Cl)ccc(C(=O)OC)c1Cl` [IIIa-9], “logP = 2.02^a)”; in that of `COC(=O)c1ccc(C(F)(F)F)cc1NC(=O)N(C)OC` [IIIa-10], “logP = 3.35^a)”.

For `COC(=O)c1ccc(C(F)(F)F)cc1NC(=O)N1CCN(C)C1=O` [IIIa-11], the logP entry in series [3] (setting [5]) is on record as “logP = 2.76^a)”. Regarding `CCN(CC)C(=O)Nc1cc(C(F)(F)F)ccc1C(=O)OC` [IIIa-17], the logP entry in series [3] (setting [5]) is “logP = 3.10^a)”.

As to `COC(=O)c1ccc(Cl)c(NC(=O)N2CCCN(CC(C)C)C2=O)c1Cl` [IIIa-21], the logP result in series [3] (setting [5]) was “logP = 3.43^a)”. As for `COC(=O)c1ccc(Cl)c(NC(=O)Nn2cnnc2)c1Cl` [IIIa-25], in series [3] (setting [5]), the logP entry is on record as “logP = 0.93^a)”.
